The values below come from PMC9325861, “Mouse precision-cut liver slices as an ex vivo model to study drug-induced cholestasis” (Archives of Toxicology, 2022).

SMILES strings stand for the structures. Where a name gives a salt, the structure may show the parent alone. Read-outs that look alike come from different tables or passages of the source.

The test system of one series is mouse PCLS. Nature of the series: Viability of mouse PCLS by ATP content (ATP bioluminescence, normalized to protein). Type of series: cell-based. To be noted: for IC50 / CC50: Mus musculus; for IC 5% (best-fit) / IC 25% (best-fit): Table S3, unit not given; for Enhancement of drug toxicity by addition of the BA mixture: extra sum of squares F-test of fits with vs w/o BA. Here is the method:
(§1) In short, freshly prepared PCLS were transferred to 12-well plates (Greiner bio-one GmbH, Austria), one slice per well. Each well was filled with 1.3 mL pre-heated (37 ℃) and oxygenated (80%) Williams Medium E (1X, glutaMAX-1), which had been supplemented with 25 mM D-glucose monohydrate and 50 μg/ml Gentamicin (denoted as WME GG). […] The DMSO concentration used was below 0.5% in the incubation medium, equivalent to DMSO concentrations in solutions prepared by dilution of BA stock solutions with WME GG.
ATP was extracted by homogenization, followed by the centrifugation of the homogenate (16,000g at 4 °C for 5 min). The supernatant was collected, and the pellet was left to dry. An ATP Bioluminescence Assay Kit (Roche Diagnostics, Mannheim, Germany) was used to determine ATP content in the supernatant. The dried pellet was used to determine the total protein content of the PCLS using the Bio-Rad DC Protein Assay (Bio-Rad, Munich, Germany). The obtained ATP values were then normalized for the total protein content of the slice.
A minimum of three mouse livers was used for each experiment, using PCLS in triplicate from each liver. GraphPad Prism 8.4.3 was used to perform statistical analysis, using a Student’s unpaired two-tailed T-test to compare two means, or a one-way ANOVA to compare multiple means. One-way ANOVA was followed by either Tukey’s multiple comparisons test to compare all means within a dataset, or Dunnett’s multiple comparisons test to compare all means with their own control mean. Nonlinear regression analysis was followed by an extra sum of squares F-test to compare two fits. mRNA expression levels are shown as Log2(fold induction) (− ΔΔCt), though the data was statistically analyzed using the cycle threshold (ΔCt) values. Differences between groups were considered significant when p < 0.05.

The test system of the next series is Ntcp (Slc10a1). Nature of the series: qRT-PCR gene expression in mouse PCLS: Ntcp. The format is cell-based. To be noted: 48 h. How it is done: as §1
(§2) Three PCLS incubated under a given condition were pooled in a 1.5-mL Rnase-free test tube, snap-frozen in liquid nitrogen, and stored at – 80 °C until analysis. RNA was isolated using a FavorPrep Tissue Total RNA Mini Kit (Favorgen, Vienna, Austria). Subsequently, the RNA yield was quantified using a NanoDrop One instrument (Thermo Fisher Scientific, Massachusetts, USA). Isolated RNA was reverse-transcribed to cDNA using a cDNA synthesis kit (Reverse Transcription System, Promega, Benelux B.V.). The cDNA samples were subsequently loaded in the thermal cycler with a program set to 22 °C for 10 min, 42 °C for 15 min, and 95 °C for 5 min.
(§3) qRT-PCR was used to determine the relative mRNA expression levels for the mouse target genes: Bsep (Abcb11), Mrp2 (Abcc2), Mrp3 (Abcc3), Mrp4 (Abcc4), Ntcp (Slc10a1), Fxr (Nr1h4), Cyp7a1 (Cyp7a1), Collagen type 1a1 (Col1a1), Hsp47 (Serpinh1). Primer sequences of the genes tested are given in Supplementary Table S1. QRT-PCR was performed using, the dye, FastStart Universal SYBR Green Master Mix (Roche Diagnostics Netherlands B.V., Almere, the Netherlands) with the ViiA™ 7 Real-Time PCR System (Applied Biosystems, Bleiswijk, the Netherlands). The first cycle constituted 10 min at 95 °C, followed by 40 cycles of 15 s at 95 °C, 30 s at 60 °C and 30 s at 72 °C, followed by 1 cycle dissociation stage (15 s: 95 °C, 60 °C and 95 °C). A minimum of four mouse livers was used for each experiment, using three PCLS per condition. Samples were measured in duplicates. […] Results are expressed as log2(fold change).
(In general: Quantitative PCR measures a nucleic acid by following its amplification.)

The next series has as its system rat PCLS. Also noted: method as in Starokozhko et al. [2017a]. Particulars: in the presence of BAs, ref Starokozhko et al. [2017a]; cited from earlier work.
Series [1] relates to Collagen type 1a1 (Col1a1). In words: qRT-PCR gene expression in mouse PCLS: Col1a1. Type of series: cell-based. Particulars: 48 h. Here is the method: as §1, §2, §3
A further series has as its system Bsep. In words: Western blot of Bsep protein in mouse PCLS. Type of series: cell-based. To be noted: 48 h. Here is the method: In short, freshly prepared PCLS were transferred to 12-well plates (Greiner bio-one GmbH, Austria), one slice per well.
In brief, the protein was extracted from three slices per treatment, and protein samples were denatured (75 °C for 10 min). […] Gels were blotted onto 0.2-μm polyvinylidene fluoride membranes using a Trans-Blot Turbo Transfer System (Bio-Rad, Munich, Germany), set to ramp up to 25 V in 15 min, at a constant current of 2.5 A. Membranes were then treated for 1 h with a protein blocking agent to prevent non-specific binding of antibodies, and incubated at 4 °C overnight with Bsep primary antibody (monoclonal antibody rabbit anti-Bsep, 1:2500, Tebu-Bio, Le Perray-en-Yvelines, France), Ntcp primary antibody (polyclonal antibody, rabbit anti-Ntcp, 1:2000, Tebu-Bio), and vinculin (116 kDa) primary antibody (monoclonal antibody, mouse anti-Vinculin, 1:500, Santa Cruz, California, USA). The following day, membranes were incubated with matching secondary antibodies for 1 h (Goat anti-rabbit HRP (Bsep and Ntcp), 1:2000; Rabbit anti-mouse HRP (vinculin), 1:5000, Dako, Santa Clara). Proteins were then visualized by adding Clarity Western ECL blotting substrate (Bio-Rad, Munich, Germany) and using a ChemiDoc Touch Imaging System (BioRad, Munich, Germany) for imaging of the resulting chemiluminescence. Afterward, Bsep and Ntcp expression was normalized by vinculin expression.
(In general: In western blotting, separated proteins are transferred to a membrane and probed.)

A further series relates to Mrp2 (Abcc2). Nature of the series: qRT-PCR gene expression in mouse PCLS: Mrp2. Type of series: cell-based. To be noted: 48 h, in the presence and absence of BAs. Here is the method: as §1
Three PCLS incubated under a given condition were pooled in a 1.5-mL Rnase-free test tube, snap-frozen in liquid nitrogen, and stored at – 80 °C until analysis. RNA was isolated using a FavorPrep Tissue Total RNA Mini Kit (Favorgen, Vienna, Austria). Subsequently, the RNA yield was quantified using a NanoDrop One instrument (Thermo Fisher Scientific, Massachusetts, USA). Isolated RNA was reverse-transcribed to cDNA using a cDNA synthesis kit (Reverse Transcription System, Promega, Benelux B.V.). […]
qRT-PCR was used to determine the relative mRNA expression levels for the mouse target genes: Bsep (Abcb11), Mrp2 (Abcc2), Mrp3 (Abcc3), Mrp4 (Abcc4), Ntcp (Slc10a1), Fxr (Nr1h4), Cyp7a1 (Cyp7a1), Collagen type 1a1 (Col1a1), Hsp47 (Serpinh1). […] Samples were measured in duplicates. […] Results are expressed as log2(fold change).

Setting [2] is: BAs present, highest concentration of CPZ, lowest concentration of GB.
The mark [3] stands for this setting: non-toxic concentration (CPZ 15 μM, CSA 1 μM, GB 25 μM), vs control with no drug and no BAs.

For `CN(C)CCCN1c2ccccc2Sc2ccc(Cl)cc21` [CPZ, Chlorpromazine hydrochloride], the IC50 was 29.1 µM in the series on mouse PCLS (48 h, read-out: IC 50% (best-fit), Table S3, mouse PCLS, 48 h, w/o BA, unit not printed in table (µM in Fig. 4)); 21.6 µM in the series on mouse PCLS (48 h, read-out: IC 50% (best-fit), Table S3, mouse PCLS, 48 h, with BA, unit not printed in table (µM in Fig. 4)); 22 to 29 µM in the series with mouse PCLS (48 h, read-out: IC50 (50% loss in viability, ATP content), mouse PCLS, 48 h, one value or range given for with and w/o BA). In addition, the CC50 amounted to 29 µM in the series on mouse PCLS (48 h, read-out: IC50 (50% loss in viability, ATP content), mouse PCLS, 48 h, w/o BA mixture) and 22 µM in the series with mouse PCLS (48 h, read-out: IC50 (50% loss in viability, ATP content), mouse PCLS, 48 h, with BA mixture). Moreover, the “IC 5% (best-fit)” value amounted to 15.4 in the series on mouse PCLS (5% decrease in ATP content, 48 h, w/o BA) and 11.4 with mouse PCLS (5% decrease in ATP content, 48 h, with BA). For the same compound, the “IC 25% (best-fit)” value in the series with mouse PCLS (25% decrease in ATP content, 48 h, w/o BA) is listed as 22.9; with mouse PCLS (25% decrease in ATP content, 48 h, with BA), 17.0. In addition, the “Enhancement of drug toxicity by addition of the BA mixture” value in the series with mouse PCLS (mouse PCLS, 48 h) is listed as “enhanced the toxicity of CPZ considerably”. For the same compound, the Ntcp gene expression result with Ntcp (Slc10a1) (setting [2]) is on record as “increase the expression of Ntcp significantly”. Also, the “Concentration reaching severe toxicity” value with rat PCLS is listed as 36 µM. For the same compound, the Col1a1 gene expression result in series [1] (in the absence of BAs, highest concentration of CPZ) was “significant increase”; in series [1] (in the presence of BAs, highest concentration (30 µM CPZ)) it was “significantly increased”. Moreover, the “Bsep protein expression (western blot band intensity)” value in the series with Bsep (non-toxic concentration (CPZ 15 μM, CSA 1 μM), in the presence of the BA mixture) is given as “less pronounced”; in the series on Bsep (setting [3]) it was “significant decrease in band intensity”. The Mrp2 gene expression entry in the series on Mrp2 (Abcc2) is recorded as “reduces”.

Regarding `COc1ccc(Cl)cc1C(=O)NCCc1ccc(S(=O)(=O)NC(=O)NC2CCCCC2)cc1` [GB, Glibenclamide], the IC50 in the series on mouse PCLS (48 h, read-out: IC50 (50% loss in viability, ATP content)) came to 70 µM; in the series with mouse PCLS (read-out: IC 50% (best-fit)) it was 69.7 µM. Besides, the “IC 5% (best-fit)” value in the series with mouse PCLS (IC the same with and w/o BA) is 37.9. Further, the “IC 25% (best-fit)” value in the series on mouse PCLS (IC the same with and w/o BA) is on record as 55.5. Besides, the “Enhancement of drug toxicity by addition of the BA mixture” value with mouse PCLS (mouse PCLS, 48 h) is given as “not observed”. In addition, the figures for the Ntcp gene expression result with Ntcp (Slc10a1) (setting [2]) and with Ntcp (Slc10a1) (in the absence of BAs) were “increase the expression of Ntcp significantly” and “decrease the Ntcp expression”, respectively. Besides, the “Concentration reaching severe toxicity” value in the series with rat PCLS is 180 µM. In addition, the Col1a1 gene expression entry in series [1] (both with and without BAs present) was “reduced Col1a1 expression in a concentration-dependent manner”. For the same compound, the “Bsep protein expression (western blot band intensity)” value in the series on Bsep (setting [3]) is “did not induce any significant changes”. Further, the Mrp2 gene expression result in the series on Mrp2 (Abcc2) was “increases the expression of Mrp2”.
